Assay results reported in US20260098030A1, “NEGATIVE ALLOSTERIC MODULATORS OF METABOTROPIC GLUTAMATE RECEPTOR 2” (Vanderbilt University, priority 2022, published 2026).

Molecular target: T1, human mGlu2 (Homo sapiens, UniProt Q14416)
T1 construct: expressed in transfected cells; host or cells: HEK-293 cells stably co-expressing GIRK channels
Assay: mGlu GIRK cell-based thallium flux assay, human mGlu2
Details: HEK-293 cells co-expressing human mGlu2 and GIRK, EC80 glutamate
Experimental: Human embryonic kidney (HEK-293) cell lines stably co-expressing human or rat mGlu2 and G protein-coupled inwardly rectifying potassium (GIRK) channels, or human mGlu3 and GIRK, were used for in vitro evaluation of compound activity in thallium flux assay using a fluorescent thallium indicator dye.
The day before the assay, GIRK cells co-expressing human mGlu3, human or rat mGlu2, as described above, were plated in black-walled, clear-bottomed, amine-coated 384-well plates at a density of 15,000 cells/20 μL/well in the assay medium (glutamine-depleted basal DMEM supplemented with 10% dialyzed FBS, 20 mM HEPES, 1 mM sodium pyruvate). Cells were incubated at 37° C. in the presence of 5% CO2. The next day, assay buffer (Hanks balanced salt solution, 20 mM HEPES, 4.16 mM sodium bicarbonate, pH 7.2) was prepared to dilute compounds and Thallos AM fluorescent dye solution. The 2× Thallos dye solution (final concentration 0.34 μM to the cells) was prepared by mixing the dye stock (2.97 mM in DMSO) to 1:1 with 10% pluronic acid before adding to the assay buffer. Cells were washed with assay buffer using a microplate washer to remove the medium, resulting in 20 μL of buffer remaining in each well. Immediately, 20 μL of 2× Thallos dye solution was added to cells, and incubated for one hour at 25° C. During the cell dye loading incubation period, a 10-point concentration serial dilution of compound was created from a 10 mM DMSO compound stock by performing a 1:3 serial dilution in DMSO using the Bravo liquid handler. The 2× compound plate was generated by transferring 0.24 μL of the diluted compound in each well to a daughter plate using an Echo acoustic liquid handler. This is further diluted in 40 μL assay buffer, resulting in a range from 30 μM to 1.5 nM final concentration in the assay. The agonist plate (5×) was prepared to include EC80 glutamate concentration (a concentration to elicit 80% of a maximally effective glutamate concentration) in thallium buffer (125 mM […], 1 mM magnesium sulfate, 1.8 mM calcium sulfate, 5 mM glucose, 10 mM HEPES, pH 7.2, 12.5 mM thallium sulfate).
After dye-loading, cell plates were washed with assay buffer to remove excess extracellular dye using a microplate washer, resulting in 20 μL of buffer remaining in each well. After a ten-minute equilibration period, cell, compound and agonist plates were loaded into a Hamamatsu μCell kinetic imaging plate reader equipped with liquid handler to monitor fluorescence changes at 480 nm excitation and 540 nm emission settings. Briefly, after collection of baseline fluorescence, 20 μL of compound was added and incubated for two minutes and twenty seconds. This is immediately followed by adding 10 μL of glutamate-thallium buffer to the wells containing compound. The fluorescent signal was monitored an additional 2.5 minutes after the glutamate addition. Multiple reference wells containing no compound received either no glutamate (for a baseline reference), EC80 glutamate, or ECmax glutamate (for normalization to maximum response). Fluorescence was measured throughout the experiment at a frequency of 1 measurement per every 2 seconds before the glutamate addition and a frequency of 1 measurement per every 1 second after the glutamate addition. Each compound concentration series occurred one time in each plate, and replicates from two or three plates were used in each experimental run. Thallium solutions were handled and disposed of according to guidelines from the Vanderbilt University Chemical Safety department.
Data were normalized using a static ratio function (F/F0) by dividing every fluorescent measurement by the initial fluorescent value for the corresponding well. The increase in signal resulting from the glutamate/thallium addition of the second add was measured by determining the slope from 3 seconds to 13 seconds after the addition. […]

T1 sequence (Q14416 19-872): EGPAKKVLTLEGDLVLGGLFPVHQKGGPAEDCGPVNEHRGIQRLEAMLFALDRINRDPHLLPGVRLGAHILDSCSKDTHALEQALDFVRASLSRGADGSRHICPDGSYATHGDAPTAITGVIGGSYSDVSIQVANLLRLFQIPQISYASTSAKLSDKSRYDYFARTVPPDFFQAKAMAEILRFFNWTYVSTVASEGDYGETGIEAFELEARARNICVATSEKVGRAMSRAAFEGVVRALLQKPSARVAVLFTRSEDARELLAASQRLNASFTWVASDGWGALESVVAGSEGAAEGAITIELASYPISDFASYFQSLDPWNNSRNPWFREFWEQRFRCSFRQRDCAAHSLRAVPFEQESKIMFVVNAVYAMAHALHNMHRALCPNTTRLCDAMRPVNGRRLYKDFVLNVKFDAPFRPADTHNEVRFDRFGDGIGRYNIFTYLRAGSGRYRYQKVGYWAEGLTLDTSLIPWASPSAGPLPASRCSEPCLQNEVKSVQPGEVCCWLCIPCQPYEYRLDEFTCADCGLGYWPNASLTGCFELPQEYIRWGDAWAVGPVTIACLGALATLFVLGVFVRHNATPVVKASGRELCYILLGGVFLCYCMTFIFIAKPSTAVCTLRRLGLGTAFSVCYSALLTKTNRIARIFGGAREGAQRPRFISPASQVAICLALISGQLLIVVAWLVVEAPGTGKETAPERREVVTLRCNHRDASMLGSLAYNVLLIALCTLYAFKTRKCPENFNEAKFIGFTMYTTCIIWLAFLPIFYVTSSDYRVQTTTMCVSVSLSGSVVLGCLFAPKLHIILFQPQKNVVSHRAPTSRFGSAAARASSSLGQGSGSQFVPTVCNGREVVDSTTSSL

**Q.** How did the IC50 turn out when `Cn1ccc(CCc2cc3c(cc2-c2ccc(F)cc2F)C(=O)NC3)n1` [Compound A1, 6-(2,4-difluorophenyl)-5-(2-(1-methyl-1H-pyrazol-3-yl)ethyl)isoindolin-1-one] was run?
**A.** 191 nM

**Q.** For `Cn1nc(CCc2cc3c(cc2-c2ccc(F)cc2F)C(=O)NC3)cc1C#N` [Compound A9, 3-(2-(6-(2,4-difluorophenyl)-1-oxoisoindolin-5-yl)ethyl)-1-methyl-1H-pyrazole-5-carbonitrile], which IC50 is on record?
**A.** 273 nM

**Q.** For `Cc1cc(-c2cc3c(cc2-c2cccc(C#N)c2)CNC3=O)c(F)cc1F` [Compound 177, 3-(6-(2,4-difluoro-5-methylphenyl)-1-oxoisoindolin-5-yl)benzonitrile], which IC50 is on record?
**A.** 1350 nM

**Q.** With `CS(=O)(=O)n1cc(-c2cc3c(cc2-c2ccc(F)cc2F)C(=O)NC3)cn1` [Compound 127, 6-(2,4-difluorophenyl)-5-(1-(methylsulfonyl)-1H-pyrazol-4-yl)isoindolin-1-one] as the compound, how does the IC50 read?
**A.** 7940 nM

**Q.** How did the IC50 turn out when `N#Cc1cccc(-c2cc3c(cc2-c2cccc(C#N)c2F)C(=O)NC3)c1` [Compound 183, 3-(6-(3-cyanophenyl)-3-oxoisoindolin-5-yl)-2-fluorobenzonitrile] was run?
**A.** > 10000 nM

**Q.** For `Cc1ccc(C#N)cc1-c1cc2c(cc1-c1cccc(C#N)c1)CNC2=O` [Compound 188, 3-(6-(3-cyanophenyl)-3-oxoisoindolin-5-yl)-4-methylbenzonitrilc], which IC50 is on record?
**A.** > 10000 nM

**Q.** Which IC50 does the source give for `N#Cc1cccc(-c2cc3c(cc2-c2ccc(O)cc2F)C(=O)NC3)c1` [Compound 168, 3-(6-(2-fluoro-4-hydroxyphenyl)-1-oxoisoindolin-5-yl)benzonitrile] here?
**A.** > 10000 nM

**Q.** How did the IC50 turn out when `O=C1NCc2cc(CCc3ccn(C4CC4)n3)c(-c3ccc(F)cc3F)cc21` [Compound A8, 5-(2-(1-cyclopropyl-1H-pyrazol-3-yl)ethyl)-6-(2,4-difluorophenyl)isoindolin-1-one] was run?
**A.** 413 nM

**Q.** How did the IC50 turn out when `[2H]C([2H])(c1cc2c(cc1-c1ccc(F)cc1F)C(=O)NC2)C([2H])([2H])c1ccnn1C` [Compound A6, 6-(2,4-difluorophenyl)-5-(2-(1-methyl-1H-pyrazol-5-yl)ethyl-1,1,2,2-d4)isoindolin-1-one] was run?
**A.** 287 nM

**Q.** With `N#Cc1cccc(-c2cc3c(cc2-c2ccc(F)c(F)c2)C(=O)NC3)c1` [Compound 158, 3-(6-(3,4-difluorophenyl)-1-oxoisoindolin-5-yl)benzonitrile] as the compound, how does the IC50 read?
**A.** 3730 nM

**Q.** With `N#Cc1cccc(-c2cc3c(cc2-c2c(F)cc(F)cc2F)C(=O)NC3)c1` [Compound 160, 3-(1-oxo-6-(2,4,6-trifluorophenyl)isoindolin-5-yl)benzonitrile] as the compound, how does the IC50 read?
**A.** 218 nM

**Q.** How did the IC50 turn out when `CNC(=O)c1cc(Cl)cc(-c2cc3c(cc2-c2ccc(F)cc2F)C(=O)NC3)c1` [Compound 117, 3-chloro-5-(6-(2,4-difluorophenyl)-1-oxoisoindolin-5-yl)-N-methylbenzamide] was run?
**A.** 737 nM

**Q.** With `N#Cc1cccc(-c2cc3c(cc2-c2ccc(F)c(F)c2F)C(=O)NC3)c1` [Compound 139, 3-(1-oxo-6-(2,3,4-trifluorophenyl)isoindolin-5-yl)benzonitrile] as the compound, how does the IC50 read?
**A.** 728 nM

**Q.** How did the IC50 turn out when `Cn1cc(-c2cc3c(cc2-c2ccc(F)cc2F)C(=O)NC3)cc1C#N` [Compound 125, 4-(6-(2,4-difluorophenyl)-1-oxoisoindolin-5-yl)-1-methyl-1H-pyrrole-2-carbonitrile] was run?
**A.** 1140 nM

**Q.** How did the IC50 turn out when `O=C1NCc2cc(-c3cccc4c3OCC4)c(-c3ccc(F)cc3F)cc21` [Compound 149, 6-(2,4-difluorophenyl)-5-(2,3-dihydrobenzofuran-7-yl)isoindolin-1-one] was run?
**A.** 532 nM

**Q.** Which IC50 does the source give for `O=C1NCc2cc(-c3cnn(CC4CC4)c3)c(-c3ccc(F)cc3F)cc21` [Compound 132, 5-(1-(cyclopropylmethyl)-1H-pyrazol-4-yl)-6-(2,4-difluorophenyl)isoindolin-1-one] here?
**A.** 529 nM

**Q.** With `COc1ccc(F)cc1-c1cc2c(cc1-c1cccc(C#N)c1)CNC2=O` [Compound 186, 3-(6-(5-fluoro-2-methoxyphenyl)-1-oxoisoindolin-5-yl)benzonitrile] as the compound, how does the IC50 read?
**A.** > 10000 nM

**Q.** For `N#Cc1cccc(-c2cc3c(cc2-c2ccc(C#N)c(C(F)(F)F)c2)C(=O)NC3)c1` [Compound 179, 4-(6-(3-cyanophenyl)-3-oxoisoindolin-5-yl)-2-(trifluoromethyl)benzonitrile], which IC50 is on record?
**A.** > 10000 nM

**Q.** `COc1cc(F)ccc1-c1cc2c(cc1-c1cccc(C#N)c1)CNC2=O` [Compound 156, 3-(6-(4-fluoro-2-methoxyphenyl)-1-oxoisoindolin-5-yl)benzonitrile] was tested. Which IC50 did it give?
**A.** 660 nM

**Q.** With `COc1c(F)cc(-c2cc3c(cc2-c2cccc(C#N)c2)CNC3=O)cc1F` [Compound 182, 3-(6-(3,5-difluoro-4-methoxyphenyl)-1-oxoisoindolin-5-yl)benzonitrile] as the compound, how does the IC50 read?
**A.** > 10000 nM

**Q.** Which IC50 does the source give for `CC(C)n1cc(-c2cc3c(cc2-c2ccc(F)cc2F)C(=O)NC3)cn1` [Compound 133, 6-(2,4-difluorophenyl)-5-(1-isopropyl-1H-pyrazol-4-yl)isoindolin-1-one] here?
**A.** 1820 nM

**Q.** How did the IC50 turn out when `[2H]C([2H])([2H])n1nncc1-c1cccc(-c2cc3c(cc2-c2ccc(F)cc2F)C(=O)NC3)c1` [Compound 152, 6-(2,4-difluorophenyl)-5-(3-(1-(methyl-d3)-1H-1,2,3-triazol-5-yl)phenyl)isoindolin-1-one] was run?
**A.** 693 nM

**Q.** `COc1ccc(-c2cc3c(cc2-c2cccc(C#N)c2)CNC3=O)cc1C#N` [Compound 172, 5-(6-(3-cyanophenyl)-3-oxoisoindolin-5-yl)-2-methoxybenzonitrile] was tested. Which IC50 did it give?
**A.** > 10000 nM

**Q.** For `N#Cc1cccc(-c2cc3c(cc2-c2ccc(OC(F)F)cc2F)C(=O)NC3)c1` [Compound 162, 3-(6-(4-(difluoromethoxy)-2-fluorophenyl)-1-oxoisoindolin-5-yl)benzonitrile], which IC50 is on record?
**A.** 891 nM

**Q.** How did the IC50 turn out when `Cn1cc(S(=O)(=O)Nc2ccccc2-c2cc3c(cc2-c2ccc(F)cc2F)C(=O)NC3)nn1` [Compound 163, N-(2-(6-(2,4-difluorophenyl)-1-oxoisoindolin-5-yl)phenyl)-1-methyl-1H-1,2,3-triazole-4-sulfonamide] was run?
**A.** 1110 nM

**Q.** Which IC50 does the source give for `[2H]C([2H])(C)n1nncc1-c1cccc(-c2cc3c(cc2-c2ccc(F)cc2F)C(=O)NC3)c1` [Compound 153, 6-(2,4-difluorophenyl)-5-(3-(1-(ethyl-1,1-d2)-1H-1,2,3-triazol-5-yl)phenyl)isoindolin-1-one] here?
**A.** 727 nM

**Q.** Which IC50 does the source give for `Cn1nccc1CCc1cc2c(cc1-c1ccc(F)cc1F)C(=O)NC2` [Compound A7, 6-(2,4-difluorophenyl)-5-(2-(1-methyl-1H-pyrazol-5-yl)ethyl)isoindolin-1-one] here?
**A.** 208 nM

**Q.** `Cc1noc(C)c1-c1cc2c(cc1-c1ccc(F)cc1F)C(=O)NC2` [Compound 126, 6-(2,4-difluorophenyl)-5-(3,5-dimethylisoxazol-4-yl)isoindolin-1-one] was tested. Which IC50 did it give?
**A.** > 10000 nM

**Q.** How did the IC50 turn out when `Cc1ncc(S(=O)(=O)Nc2ccccc2-c2cc3c(cc2-c2ccc(F)cc2F)C(=O)NC3)s1` [Compound 164, N-(2-(6-(2,4-difluorophenyl)-1-oxoisoindolin-5-yl)phenyl)-2-methylthiazole-5-sulfonamide] was run?
**A.** 955 nM

**Q.** `O=C1NCc2cc(-c3cnn(CC(F)(F)F)c3)c(-c3ccc(F)cc3F)cc21` [Compound 131, 6-(2,4-difluorophenyl)-5-(1-(2,2,2-trifluoroethyl)-1H-pyrazol-4-yl)isoindolin-1-one] was tested. Which IC50 did it give?
**A.** 366 nM

**Q.** For `N#Cc1cccc(-c2cc3c(cc2-c2cc(C#N)ccc2F)C(=O)NC3)c1` [Compound 176, 3-(6-(3-cyanophenyl)-3-oxoisoindolin-5-yl)-4-fluorobenzonitrile], which IC50 is on record?
**A.** > 10000 nM

**Q.** How did the IC50 turn out when `O=C1NCc2cc(-c3cnn(C4COC4)c3)c(-c3ccc(F)cc3)cc21` [Compound 3, 6-(4-fluorophenyl)-5-(1-(oxctan-3-yl)-1H-pyrazol-4-yl)isoindolin-1-one] was run?
**A.** > 10000 nM
